Source: US6737383B1, “Herbicidal oxadiazolidines” (priority 1999, dated 2004)

Legend:
surinam grass = assay: Test B pre/postemergence surinam grass; format: in vivo, Brachiaria decumbens
Summary of the method: (§1)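 Herbicidal effect was estimated by eye on a ten-point control scale after plants spent twelve to sixteen days in a greenhouse following soil or foliar treatment. Foliar sprays targeted plants at one to four leaves; all doses were formulated in a non-phytotoxic solvent with surfactant.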

purple nutsedge = assay: Test B pre/postemergence purple nutsedge; format: in vivo, Cyperus rotundus
Summary of the method: as §1

smallflower flatsedge = assay: Test B flood test smallflower flatsedge; format: in vivo, Cyperus difformis
Summary of the method: (§2)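 Flood test on plants grown to the 2-leaf stage; treated plants kept in greenhouse twelve to sixteen days, then visually rated against controls on a 0 (no effect) to 10 (complete control) scale.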

pigweed = assay: Test B pre/postemergence pigweed; format: in vivo, Amaranthus retroflexus
Summary of the method: as §1

rape = assay: Test B pre/postemergence rape; format: in vivo, Brassica napus
Summary of the method: as §1

wild oat = assay: Test B pre/postemergence wild oat; format: in vivo, Avena fatua
Summary of the method: as §1

sugar beet = assay: Test B pre/postemergence sugar beet; format: in vivo, Beta vulgaris
Summary of the method: as §1

cocklebur = assay: Test B pre/postemergence cocklebur; format: in vivo, Xanthium strumarium
Summary of the method: as §1

wheat = assay: Test B pre/postemergence wheat; format: in vivo, Triticum aestivum
Summary of the method: as §1

bamyardgrass = assay: Test B flood test barnyardgrass; format: in vivo, Echinochloa crus-galli
Summary of the method: as §2

giant foxtail = assay: Test B pre/postemergence giant foxtail; format: in vivo, Setaria faberii
Summary of the method: as §1

velvetleaf = assay: Test B pre/postemergence velvetleaf; format: in vivo, Abutilon theophrasti
Summary of the method: as §1

morningglory = assay: Test B pre/postemergence morningglory; format: in vivo, Ipomoea hederacea
Summary of the method: as §1

blackgrass = assay: Test B pre/postemergence blackgrass; format: in vivo, Alopecurus myosuroides
Summary of the method: as §1

crabgrass = assay: Test B pre/postemergence crabgrass; format: in vivo, Digitaria sanguinalis
Summary of the method: as §1

rice = assay: Test B flood test rice; format: in vivo, Oryza sativa
Summary of the method: as §2

[1] = Postemergence, Rate 500 g/ha, scale of 0 to 10 where 0 is no effect and 10 is complete control
[2] = Preemergence, Rate 62 g/ha, scale 0 to 10 (0 no effect, 10 complete control)
[3] = Preemergence, Rate 125 g/ha, scale of 0 to 10 where 0 is no effect and 10 is complete control
[4] = Preemergence, Rate 250 g/ha, scale 0 to 10, 0 is no effect, 10 is complete control
[5] = Preemergence, Rate 500 g/ha, scale 0 to 10, 0 is no effect, 10 is complete control
[6] = Rate 62 g/ha, Postemergence, scale of 0 to 10 where 0 is no effect and 10 is complete control
[7] = Rate 125 g/ha, Postemergence, scale 0 to 10, 0 is no effect, 10 is complete control
[8] = Postemergence, Rate 250 g/ha, scale 0 to 10
[9] = Postemergence block (flood test species), Rate 250 g/ha, scale 0 to 10
[10] = Postemergence section (flood test species), Rate 500 g/ha, scale of 0 to 10 where 0 is no effect and 10 is complete control
[11] = Rate 125 g/ha, Postemergence section (flood test species), scale 0 to 10, 0 is no effect, 10 is complete control

For `CC(C)N(C(=O)n1oc(=O)n(C(C)C#N)c1=O)c1ccc(F)cc1F` (stereo not shown) [Compound 432], the “B. signalgrass plant response rating” value (surinam grass; Postemergence, Rate 250 g/ha, scale 0 to 10, 0 no effect, 10 complete control) was 0, the “B. signalgrass plant response rating” value (surinam grass; [1]) was 0 and the “Plant response rating, B. signalgrass” value (surinam grass; [2]) was 0. The “Plant response rating, B. signalgrass” value (surinam grass; [3]) was 0, the “B. signalgrass plant response rating” value (surinam grass; [4]) was 0 and the “B. signalgrass plant response rating” value (surinam grass; [5]) was 0. For the same molecule, the “B. signalgrass plant response rating” value (surinam grass; [6]) was 0, the “B. signalgrass plant response rating” value (surinam grass; [7]) was 0 and the “Nutsedge plant response rating” value (purple nutsedge; [8]) was 0. For the same molecule, the “Nutsedge plant response rating” value (purple nutsedge; [1]) was 0, the “Plant response rating, Nutsedge” value (purple nutsedge; [2]) was 0 and the “Plant response rating, Nutsedge” value (purple nutsedge; [3]) was 0. The “Nutsedge plant response rating” value (purple nutsedge; [4]) was 0, the “Nutsedge plant response rating” value (purple nutsedge; [5]) was 0 and the “Nutsedge plant response rating” value (purple nutsedge; [7]) was 0. For the same molecule, the “S. Flatsedge plant response rating” value (smallflower flatsedge; [9]) was 0, the “S. Flatsedge plant response rating” value (smallflower flatsedge; [10]) was 0 and the “S. Flatsedge plant response rating” value (smallflower flatsedge; [11]) was 0. The “Redroot pigweed plant response rating” value (pigweed; [8]) was 0, the “Redroot pigweed plant response rating” value (pigweed; [1]) was 0 and the “Plant response rating, Redroot pigweed” value (pigweed; [2]) was 0. For the same molecule, the “Plant response rating, Redroot pigweed” value (pigweed; [3]) was 0, the “Redroot pigweed plant response rating” value (pigweed; [4]) was 0 and the “Redroot pigweed plant response rating” value (pigweed; [5]) was 0. The “Redroot pigweed plant response rating” value (pigweed; [7]) was 0, the “Rape plant response rating” value (rape; [8]) was 0 and the “Rape plant response rating” value (rape; [1]) was 0. The “Plant response rating, Rape” value (rape; [2]) was 0, the “Plant response rating, Rape” value (rape; [3]) was 0 and the “Rape plant response rating” value (rape; [4]) was 0. The “Rape plant response rating” value (rape; [5]) was 0, the “Rape plant response rating” value (rape; [7]) was 0 and the “Wild oats plant response rating” value (wild oat; [8]) was 0. For the same molecule, the “Wild oats plant response rating” value (wild oat; [1]) was 3, the “Plant response rating, Wild oats” value (wild oat; [2]) was 0 and the “Plant response rating, Wild oats” value (wild oat; [3]) was 0. The “Wild oats plant response rating” value (wild oat; [4]) was 0, the “Wild oats plant response rating” value (wild oat; [5]) was 0 and the “Wild oats plant response rating” value (wild oat; [7]) was 0. The “Sugarbeets plant response rating” value (sugar beet; [8]) was 0, the “Sugarbeets plant response rating” value (sugar beet; [1]) was 0 and the “Plant response rating, Sugarbeets” value (sugar beet; [2]) was 0. The “Plant response rating, Sugarbeets” value (sugar beet; [3]) was 0, the “Sugarbeets plant response rating” value (sugar beet; [4]) was 0 and the “Sugarbeets plant response rating” value (sugar beet; [5]) was 0. For the same molecule, the “Sugarbeets plant response rating” value (sugar beet; [7]) was 0, the “Cocklebur plant response rating” value (cocklebur; [8]) was 0 and the “Cocklebur plant response rating” value (cocklebur; [1]) was 0. The “Plant response rating, Cocklebur” value (cocklebur; [2]) was 0, the “Plant response rating, Cocklebur” value (cocklebur; [3]) was 0 and the “Cocklebur plant response rating” value (cocklebur; [4]) was 0. For the same molecule, the “Cocklebur plant response rating” value (cocklebur; [5]) was 0, the “Cocklebur plant response rating” value (cocklebur; [6]) was 0 and the “Cocklebur plant response rating” value (cocklebur; [7]) was 0. For the same molecule, the “Wheat plant response rating” value (wheat; [8]) was 0, the “Wheat plant response rating” value (wheat; [1]) was 0 and the “Plant response rating, Wheat” value (wheat; [2]) was 0. For the same molecule, the “Plant response rating, Wheat” value (wheat; [3]) was 0, the “Wheat plant response rating” value (wheat; [4]) was 0 and the “Wheat plant response rating” value (wheat; [5]) was 0. The “Wheat plant response rating” value (wheat; [7]) was 0, the “Barnyardgrass plant response rating” value (bamyardgrass; [9]) was 0 and the “Barnyardgrass plant response rating” value (bamyardgrass; [10]) was 0. The “Barnyardgrass plant response rating” value (bamyardgrass; Rate 62 g/ha, Postemergence (flood test species), scale of 0 to 10 where 0 is no effect and 10 is complete control) was 0, the “Barnyardgrass plant response rating” value (bamyardgrass; [11]) was 0 and the “Giant foxtail plant response rating” value (giant foxtail; [8]) was 6. The “Giant foxtail plant response rating” value (giant foxtail; [1]) was 8, the “Plant response rating, Giant foxtail” value (giant foxtail; [2]) was 0 and the “Plant response rating, Giant foxtail” value (giant foxtail; [3]) was 2. The “Giant foxtail plant response rating” value (giant foxtail; [4]) was 6, the “Giant foxtail plant response rating” value (giant foxtail; [5]) was 9 and the “Giant foxtail plant response rating” value (giant foxtail; [6]) was 0. The “Giant foxtail plant response rating” value (giant foxtail; [7]) was 3, the “Velvetleaf plant response rating” value (velvetleaf; [8]) was 0 and the “Velvetleaf plant response rating” value (velvetleaf; [1]) was 2. The “Plant response rating, Velvetleaf” value (velvetleaf; [2]) was 0, the “Plant response rating, Velvetleaf” value (velvetleaf; [3]) was 0 and the “Velvetleaf plant response rating” value (velvetleaf; [4]) was 0. For the same molecule, the “Velvetleaf plant response rating” value (velvetleaf; [5]) was 0, the “Velvetleaf plant response rating” value (velvetleaf; [7]) was 0 and the “Morningglory plant response rating” value (morningglory; [8]) was 1. For the same molecule, the “Morningglory plant response rating” value (morningglory; [1]) was 2, the “Plant response rating, Morningglory” value (morningglory; [2]) was 0 and the “Plant response rating, Morningglory” value (morningglory; [3]) was 0. For the same molecule, the “Morningglory plant response rating” value (morningglory; [4]) was 0, the “Morningglory plant response rating” value (morningglory; [5]) was 0 and the “Morningglory plant response rating” value (morningglory; [7]) was 1. The “Blackgrass plant response rating” value (blackgrass; [8]) was 4, the “Blackgrass plant response rating” value (blackgrass; [1]) was 4 and the “Plant response rating, Blackgrass” value (blackgrass; [2]) was 0. The “Plant response rating, Blackgrass” value (blackgrass; [3]) was 0, the “Blackgrass plant response rating” value (blackgrass; [4]) was 0 and the “Blackgrass plant response rating” value (blackgrass; [5]) was 2. For the same molecule, the “Blackgrass plant response rating” value (blackgrass; [6]) was 0, the “Blackgrass plant response rating” value (blackgrass; [7]) was 2 and the “Crabgrass plant response rating” value (crabgrass; [8]) was 6. For the same molecule, the “Crabgrass plant response rating” value (crabgrass; [1]) was 6, the “Plant response rating, Crabgrass” value (crabgrass; [2]) was 3 and the “Plant response rating, Crabgrass” value (crabgrass; [3]) was 5. The “Crabgrass plant response rating” value (crabgrass; [4]) was 8, the “Crabgrass plant response rating” value (crabgrass; [5]) was 9 and the “Crabgrass plant response rating” value (crabgrass; [6]) was 0. The “Crabgrass plant response rating” value (crabgrass; [7]) was 0, the “Rice plant response rating” value (rice; [9]) was 0 and the “Rice plant response rating” value (rice; [10]) was 0. For the same molecule, the “Rice plant response rating” value (rice; [11]) was 0.
